Measured values published in patent US20240199623A1 (ILDONG PHARMACEUTICAL CO., LTD., priority 2020, published 2024).
pEC50: −log10 of the molar value.

What was measured:
[1] = Phosphate-buffered saline (PBS) solubility of compounds; type: physicochemical; settings: aqueous buffer, thermodynamic from solid, PBS pH 7.5, 0.5 mg/mL, vortexed 90 min, filtered, LC-MS/MS, read-out: Solubility Range
Method: PBS solutions (pH 7.5) were prepared according to the following compositions and stored at 4° C. Test compounds were dissolved in PBS (pH 7.5) at 0.5 mg/mL and vortexed for 90 min. The PBS solution was sequentially filtered through a 0.45, 1.2, […] syringe filter. Concentration of test compounds were determined using LC-MS/MS with appropriate dilution of the samples.

C57BL/6 female mice = experiment: Scopolamine induced tear volume reduction model; type: in vivo, mouse; settings: scopolamine-injected mice, ophthalmic solution topically on both eyes 3 times a day, phenol red thread; average if evaluated twice
Method: Seven-week old C57BL/6 female mice were used.
Scopolamine hydrobromide was purchased from Sigma Aldrich (Cat No. S0929), dissolved in saline, and sterilized prior to use.
Zone-Quick phenol red thread was obtained from Menicon.
The test compounds used in this experiment were dissolved in PBS containing 1% of surfactant.
Scopolamine (0.2 ml of 2.5 mg/mL solution) was injected subcutaneously 3 times a day to induce a decrease in the tear volume in the mouse. At the same time, the ophthalmic solution of test compounds or vehicle were topically administered onto both eyes 3 times a day. Tear volume was measured by phenol red thread before dosing (basal level) and 1 hour after the last administration of scopolamine and ophthalmic solution. The results were obtained by measuring the length of the phenol red thread turning red by tears. The schedule of study is expressed as FIG. 1.
If the test compound was evaluated twice, the average value was used.

human wild type-CFTR [2] = target: T1, human wild type-CFTR (Homo sapiens, UniProt P13569); experiment: Cell-based YFP assay; parameters: expressed in transfected cells; host or cells: CHO-K1 (Chinese hamster ovary); settings: CHO-K1 cells expressing human wild type-CFTR and YFP-H148Q/I152L; forskolin 20 μM = 100% activity; read-out: Cell-based YFP Assay (EC50) Concentration Range
T1 sequence (P13569 whole entry): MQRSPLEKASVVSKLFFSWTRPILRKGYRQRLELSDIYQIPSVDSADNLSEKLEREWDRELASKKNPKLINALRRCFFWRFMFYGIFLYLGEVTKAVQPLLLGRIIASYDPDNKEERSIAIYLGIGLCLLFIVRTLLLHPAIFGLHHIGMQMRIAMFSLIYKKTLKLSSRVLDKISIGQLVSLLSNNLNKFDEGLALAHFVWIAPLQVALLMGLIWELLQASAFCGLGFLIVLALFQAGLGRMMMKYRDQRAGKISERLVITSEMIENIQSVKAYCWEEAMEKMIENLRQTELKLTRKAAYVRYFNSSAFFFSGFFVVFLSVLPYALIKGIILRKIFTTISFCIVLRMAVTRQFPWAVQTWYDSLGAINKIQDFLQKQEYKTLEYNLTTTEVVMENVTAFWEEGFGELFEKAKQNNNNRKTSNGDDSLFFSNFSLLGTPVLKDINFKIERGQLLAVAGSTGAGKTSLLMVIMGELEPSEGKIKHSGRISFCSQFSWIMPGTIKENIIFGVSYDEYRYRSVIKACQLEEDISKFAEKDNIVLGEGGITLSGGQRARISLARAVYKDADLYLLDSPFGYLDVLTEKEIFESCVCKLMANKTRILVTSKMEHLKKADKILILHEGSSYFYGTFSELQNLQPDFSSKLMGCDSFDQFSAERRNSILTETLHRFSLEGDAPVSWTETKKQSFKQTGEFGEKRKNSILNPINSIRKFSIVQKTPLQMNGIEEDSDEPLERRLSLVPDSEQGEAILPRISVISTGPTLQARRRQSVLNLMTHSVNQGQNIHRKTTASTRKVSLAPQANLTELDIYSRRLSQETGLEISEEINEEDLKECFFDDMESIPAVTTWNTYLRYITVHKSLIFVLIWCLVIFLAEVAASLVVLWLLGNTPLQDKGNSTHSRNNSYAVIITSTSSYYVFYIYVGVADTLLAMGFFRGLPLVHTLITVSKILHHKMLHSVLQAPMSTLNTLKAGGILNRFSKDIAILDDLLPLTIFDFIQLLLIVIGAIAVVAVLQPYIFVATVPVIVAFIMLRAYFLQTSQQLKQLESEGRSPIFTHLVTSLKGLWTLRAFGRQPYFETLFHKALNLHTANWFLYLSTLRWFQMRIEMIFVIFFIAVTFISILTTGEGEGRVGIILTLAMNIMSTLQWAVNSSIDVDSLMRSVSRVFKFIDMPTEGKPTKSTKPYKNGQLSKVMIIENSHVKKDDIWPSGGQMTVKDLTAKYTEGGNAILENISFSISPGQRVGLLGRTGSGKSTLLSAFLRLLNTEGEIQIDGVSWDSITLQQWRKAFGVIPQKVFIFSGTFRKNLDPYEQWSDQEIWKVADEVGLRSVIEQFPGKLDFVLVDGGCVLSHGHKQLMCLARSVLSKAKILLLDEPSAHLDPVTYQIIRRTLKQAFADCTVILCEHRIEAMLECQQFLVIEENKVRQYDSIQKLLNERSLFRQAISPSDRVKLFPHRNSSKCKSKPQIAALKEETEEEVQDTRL
Outline: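 I⁻-driven YFP fluorescence quenching at 37 °C: 2 s baseline, addition of 140 mM iodide solution, then 14 s of readings at 0.4 s intervals. Cells were CHO-K1 expressing human wild-type CFTR plus YFP-H148Q/I152L. EC50 derived from averaged triplicates.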

human wild type-CFTR [3] = target: T1, human wild type-CFTR; experiment: Short-circuit current measurement; type: cell-based; parameters: expressed in transfected cells; settings: FRT cells expressing human wild type-CFTR; Forskolin 20 μM signal used as 100% activity; read-out: Short-circuit current measurement (EC50) Concentration range
Source text: Forskolin (Tocris cat. #1099), CFTRinh-172 (Tocris cat. #3430), amphotericin B (Tocris cat. #6930), dimethyl sulfoxide (Sigma cat. #D4540), EVC4000 Multi-Channel V/I Clamp (World Precision Instruments, Sarasota, FL), PowerLab 4/35 (AD Instruments, Castle Hill, Australia), Labchart Pro 7, GraphPad Prism 5 (GraphPad Software, Inc.). Fisher rat thyroid (FRT) cells expressing human wild type-CFTR were provided by Dr. Alan Verkman (University of California, San Francisco) and grown in DMEM/F12 medium (1:1) supplemented with 10% FBS, 2 mM glutamine, 100 units/ml penicillin and 100 μg/ml streptomycin. Snapwell inserts containing CF TR-expressing FRT cells were mounted in Ussing chambers (Physiologic Instruments, San Diego, CA). […] Forskolin, test compounds, and CFTRinh-172 were added to the apical and basolateral bath solution. Apical membrane current and short-circuit current were measured with an EVC4000 Multi-Channel V/I Clamp (World Precision Instruments, Sarasota, FL) and recorded using PowerLab 4/35 (AD Instruments, Castle Hill, Australia). Data were collected and analyzed with ADInstruments acquisition software Labchart Pro 7 software. The sampling rate was 4 Hz.

Compound | solubility at 90 min [1] [µg/mL] | Ratio of tear volume (test compound to vehicle) (C57BL/6 female mice) | pEC50 (human wild type-CFTR [2]) | pEC50 (human wild type-CFTR [3])
COc1ccc(-c2ccnc3cc(C(=O)Nc4ccc(N(C)C)cc4)nn23)cc1OC [Compound 276, 7-(3,4-dimethoxyphenyl)-N-(4-(dimethylamino)phenyl)pyrazolo[1,5-a]pyrimidine-2-carboxamide] | < 0.1 | 1.21 | > 6.70 | –
COc1ccc(-c2ccnc3cc(C(=O)Nc4ccc(N5CC=CCC5)cc4)nn23)cc1OC [Compound 273, N-(4-(3,6-dihydropyridin-1(2H)-yl)phenyl)-7 (3,4-dimethoxyphenyl) pyrazolo[1,5-a]pyrimidine-2-carboxamide] | < 0.1 | 0.80 | > 6.70 | –
COc1ccc(-c2ccnc3cc(C(=O)Nc4ccc(N5CCN(C(=O)OC(C)(C)C)CC5)cn4)nn23)cc1OC [Compound 272, tert-butyl 4-(6-(7-(3,4-dimethoxyphenyl)pyrazolo [1,5-a]pyrimidine-2-carboxamido)pyridin-3-yl)piperazine-1-carboxylate] | < 0.1 | 1.14 | > 6.70 | –
COc1ccc(-c2ccnc3cc(C(=O)Nc4ccc(C(=O)N5CCOCC5)cc4C)nn23)cc1OC [Compound 127, 7-(3,4-dimethoxyphenyl)-N-(2-methyl-4-(morpholine-4-carbonyl)phenyl)pyrazolo[1,5-a] pyrimidine-2-carboxamide] | < 0.1 | – | 5.70 to 6.70 | 5.70 to 6.70
COc1ccc(-c2ccnc3cc(C(=O)Nc4ccc(NC(=O)OC(C)(C)C)cc4)nn23)cc1OC [Compound 256, tert-butyl (4-(7-(3,4-dimethoxyphenyl)pyrazolo [1,5-a]pyrimidine-2-carboxamido)phenyl) carbamate] | < 0.1 | – | > 6.70 | > 6.70
COC(=O)c1ccc2c(c1)CN(C(=O)c1cc3nccc(-c4ccc(OC)c(OC)c4)n3n1)CC2 [Compound 131, methyl 2-(7-(3,4-dimethoxyphenyl)pyrazolo [1,5-a]pyrimidine-2-carbonyl)-1,2,3,4-tetrahydroisoquinoline-7-carboxylate] | < 0.1 | – | > 6.70 | > 6.70
COc1ccc(-c2ccnc3cc(C(=O)Nc4ccccn4)nn23)cc1OC [Compound 17, 7-(3,4-dimethoxyphenyl)-N-(pyridin-2-yl)pyrazolo[1,5-a] pyrimidine-2-carboxamide] | < 0.1 | – | > 6.70 | > 6.70
COc1ccc(-c2ccnc3cc(C(=O)Nc4ccc(N5CCCC5)cc4)nn23)cc1OC [Compound 277, 7-(3,4-dimethoxyphenyl)-N-(4-(pyrrolidin-1-yl)phenyl)pyrazolo[1,5-a] pyrimidine-2-carboxamide] | < 0.1 | – | > 6.70 | > 6.70
COC(=O)c1ccc(NC(=O)c2cc3nccc(-c4ccc(OC)c(OC)c4)n3n2)nc1 [Compound 31, methyl 6-(7-(3,4-dimethoxyphenyl)pyrazolo [1,5-a]pyrimidine-2-carboxamido)nicotinate] | < 0.1 | – | > 6.70 | > 6.70
COc1ccc(-c2ccnc3cc(C(=O)Nc4ccc(C(=O)O)cc4Cl)nn23)cc1OC [Compound 106, 3-chloro-4-(7-(3,4-dimethoxyphenyl)pyrazolo [1,5-a]pyrimidine-2-carboxamido)benzoic acid] | < 0.1 | – | > 6.70 | ≤ 5.70
COC(=O)c1ccc2c(c1)N(C(=O)c1cc3nccc(-c4ccc(OC)c(OC)c4)n3n1)CC2 [Compound 132, methyl 1-(7-(3,4-dimethoxyphenyl)pyrazolo [1,5-a]pyrimidine-2-carbonyl)indoline-6-carboxylate] | < 0.1 | – | > 6.70 | 5.70 to 6.70
